Results from PMC5437225, “Picomolar, selective, and subtype-specific small-molecule inhibition of TRPC1/4/5 channels” (The Journal of Biological Chemistry, 2017).

What was measured:
TRPC5 = target: T1, TRPC5 (Homo sapiens, UniProt Q9UL62); test: fura-2 Ca2+ entry, FlexStation 96-well; assay type: cell-based; settings: activated by 10 nM (-)-englerin A; pH 7.4; room temperature; 30 min preincubation; read-out: C31 IC50
T1 construct: homomer
T1 sequence (Q9UL62 1-973): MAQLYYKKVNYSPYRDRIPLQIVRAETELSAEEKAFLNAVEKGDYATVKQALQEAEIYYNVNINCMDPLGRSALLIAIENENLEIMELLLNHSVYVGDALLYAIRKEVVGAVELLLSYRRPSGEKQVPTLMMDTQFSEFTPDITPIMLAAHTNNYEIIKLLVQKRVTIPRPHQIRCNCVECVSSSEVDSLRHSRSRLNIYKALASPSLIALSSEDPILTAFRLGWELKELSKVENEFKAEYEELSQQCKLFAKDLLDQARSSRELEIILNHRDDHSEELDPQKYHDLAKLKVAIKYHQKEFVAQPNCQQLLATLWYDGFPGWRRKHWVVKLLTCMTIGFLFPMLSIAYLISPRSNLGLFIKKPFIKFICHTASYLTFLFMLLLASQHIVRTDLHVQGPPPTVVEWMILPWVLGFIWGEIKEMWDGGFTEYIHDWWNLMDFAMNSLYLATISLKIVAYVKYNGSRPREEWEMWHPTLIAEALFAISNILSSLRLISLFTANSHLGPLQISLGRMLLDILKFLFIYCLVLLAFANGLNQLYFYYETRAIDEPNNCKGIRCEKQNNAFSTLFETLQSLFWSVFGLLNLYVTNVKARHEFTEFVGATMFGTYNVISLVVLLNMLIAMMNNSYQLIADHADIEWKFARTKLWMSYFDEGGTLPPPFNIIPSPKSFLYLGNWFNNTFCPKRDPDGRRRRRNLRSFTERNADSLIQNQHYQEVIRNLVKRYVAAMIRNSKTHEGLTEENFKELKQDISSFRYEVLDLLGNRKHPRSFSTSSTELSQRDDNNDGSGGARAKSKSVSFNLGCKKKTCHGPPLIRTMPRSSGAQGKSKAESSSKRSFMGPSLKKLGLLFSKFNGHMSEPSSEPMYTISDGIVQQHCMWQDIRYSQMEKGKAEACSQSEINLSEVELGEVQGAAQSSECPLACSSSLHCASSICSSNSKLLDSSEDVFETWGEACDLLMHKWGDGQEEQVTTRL
Text: fura-2 Ca2+ entry, FlexStation 96-well on TRPC5

TRPC5-TRPC1 concatemer = target: T2, TRPC5-TRPC1 concatemer (Homo sapiens, UniProt P48995+Q9UL62); test: fura-2 Ca2+ entry, FlexStation 96-well; assay type: cell-based; settings: read-out: C31 IC50
T2 construct: concatemer of TRPC5 with TRPC1
T2 sequence (P48995 whole entry, one chain of several): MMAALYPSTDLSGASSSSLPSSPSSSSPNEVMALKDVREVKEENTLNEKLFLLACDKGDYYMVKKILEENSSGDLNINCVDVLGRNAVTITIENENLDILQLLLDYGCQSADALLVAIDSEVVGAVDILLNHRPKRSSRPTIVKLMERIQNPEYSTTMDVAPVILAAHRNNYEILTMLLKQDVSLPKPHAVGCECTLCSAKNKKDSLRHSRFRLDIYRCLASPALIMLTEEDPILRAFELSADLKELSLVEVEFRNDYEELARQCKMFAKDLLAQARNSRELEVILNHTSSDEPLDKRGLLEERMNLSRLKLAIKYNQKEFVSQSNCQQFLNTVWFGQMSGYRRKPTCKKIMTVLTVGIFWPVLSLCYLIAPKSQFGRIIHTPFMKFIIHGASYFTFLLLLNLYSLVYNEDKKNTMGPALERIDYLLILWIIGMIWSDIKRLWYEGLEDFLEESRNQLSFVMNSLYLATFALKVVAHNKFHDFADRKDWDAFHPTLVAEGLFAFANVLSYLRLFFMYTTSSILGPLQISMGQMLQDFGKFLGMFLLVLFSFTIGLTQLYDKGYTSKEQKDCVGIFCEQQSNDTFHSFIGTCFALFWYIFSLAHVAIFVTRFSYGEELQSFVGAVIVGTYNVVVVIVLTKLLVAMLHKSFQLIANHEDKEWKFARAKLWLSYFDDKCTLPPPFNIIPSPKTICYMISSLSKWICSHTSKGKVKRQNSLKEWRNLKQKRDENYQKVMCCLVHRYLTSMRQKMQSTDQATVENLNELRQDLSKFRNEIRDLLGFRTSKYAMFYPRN
Text: fura-2 Ca2+ entry, FlexStation 96-well on TRPC5-TRPC1 concatemer

IC50 (TRPC5): 1.3 nM | IC50 (TRPC5-TRPC1 concatemer): 0.199 nM
SMILES: Cn1c(=O)n(CCCO)c(=O)c2c1nc(Oc1cccc(OC(F)(F)F)c1)n2Cc1ccc(Cl)cc1 [compound 31, C31]
